In patent US10336792B2, “Antimicrobial peptide dendrimers” (priority 2014, dated 2019):
Converted amounts (≈) assume the structure as drawn. Positions of bridges follow the written chain, without caps; N, C: chain ends. Non-standard residues stand in square brackets, D forms with d. Residues, ends and D or L forms follow the SMILES beside them. Groups on a side chain read outwards from the residue. Chains are numbered I, II in the order given. *: point of attachment. LeuLys(Leu) = CC(C)C[C@H](N)C(=O)NCCCC[C@H](NC(=O)[C@@H](N)CC(C)C)C(=O)*; Dab = NCC[C@H](N)C(=O)O

System: Pseudomonas aeruginosa (strain PA01)
Assay: microbe, parasite or virus in culture
Format: cell-based
Conditions: strain
Protocol: Antimicrobial activity was assayed against Bacillus subtilis (strain BR151), Escherichia coli (strain DH5α) and Pseudomonas aeruginosa (strain PA01). Microdilution broth method was used to determine the minimal inhibitory concentration (MIC). A colony of bacteria was grown in LB-medium overnight at 37° C. The concentration was quantified by measuring absorbance at 600 nm and diluted to OD600=0.1 (1×10^8 CFU/mL). The samples were prepared as stock solutions of 1 mg mL^−1 in H2O and diluted serially by ⅔ in nutrient LB in a 96-well microtiterplate (Cornstar, polypropylene, untreated). The sample solutions (50 μL) were mixed with the diluted bacterial suspension with an OD600 nm of 0.001 (50 μL). […] The plates were incubated at 37° C. until satisfactory growth (18-24 h). For each test, two columns of the plate were kept for sterility control (SC, broth only) and growth control (GC, broth with bacterial inoculums, no antibiotics). 10 μL of a solution of MTT (0.1% in H2O) was added to each well. The minimal inhibitory concentration (MIC) was defined as the lowest concentration of the antimicrobial substance (peptide dendrimer) that inhibited visible growth of the tested bacteria (yellow) with the unaided eye. For microbiological study the linear peptide LysTyrLysLysAlaLeuLysLysLeuAlaLysLeuLeu (SEQ ID No. 1) was used as reference.
All peptides were tested for their activity against P. aeruginosa PAO1 in a broth dilution assay (Wiegand, I. et al., 2008, Nat. Protoc., 3, 163-75; Clinical and Laboratory Standards Institute document M7-A7 7th Edition) to determine the MIC (minimal inhibitory concentration) values. The stock solutions of the peptide dendrimers were diluted serially by ⅔ in nutrient LB in 96-well microtiter plates. Bacteria were grown in nutrient LB overnight at 37° C. After dilution the bacteria were added to the peptides and incubated overnight (18-24 h) at 37° C. […] The position of the amino acids between the branching units seems to be optimal if the hydrophobic amino acid is the first counting from C-terminus and the charged one is on the second position. Introducing Ala as additional hydrophobic amino acid reduces activity (MSt-120). […] Also assembling charged or hydrophobic sections between the branching units leads to loss of activity whereas altering L-amino acids to D-amino acids maintains activity leading to the hypothesis that the mechanism of action should not be receptor mediated.

`CC(C)C[C@H](NC(=O)[C@H](CCCCN)NC(=O)[C@H](CCCCNC(=O)[C@H](CC(C)C)NC(=O)[C@H](CCCCN)NC(=O)[C@H](CCCCNC(=O)[C@H](CC(C)C)NC(=O)[C@@H](N)CCCCN)NC(=O)[C@H](CC(C)C)NC(=O)[C@@H](N)CCCCN)NC(=O)[C@H](CC(C)C)NC(=O)[C@H](CCCCN)NC(=O)[C@H](CCCCNC(=O)[C@H](CC(C)C)NC(=O)[C@@H](N)CCCCN)NC(=O)[C@H](CC(C)C)NC(=O)[C@@H](N)CCCCN)C(N)=O` [MSt-146, (KL)4(KKL)2(KKL)] (I: H-KLK([Leu-Lys])KLKKL-NH2 / II: H-KLK([Leu-Lys])KL; amide I:6-II:C) and `CC(C)C[C@H](NC(=O)[C@H](CCN)NC(=O)[C@H](CCCCNC(=O)[C@H](CC(C)C)NC(=O)[C@H](CCN)NC(=O)[C@H](CCCCNC(=O)[C@H](CC(C)C)NC(=O)[C@@H](N)CCN)NC(=O)[C@H](CC(C)C)NC(=O)[C@@H](N)CCN)NC(=O)[C@H](CC(C)C)NC(=O)[C@H](CCN)NC(=O)[C@H](CCCCNC(=O)[C@H](CC(C)C)NC(=O)[C@@H](N)CCN)NC(=O)[C@H](CC(C)C)NC(=O)[C@@H](N)CCN)C(N)=O` [MSt-201, (DabL)4(KDabL)2(KDabL)] (I: H-[Dab]LK([Leu-Dab])[Dab]LK[Dab]L-NH2 / II: H-[Dab]LK([Leu-Dab])[Dab]L; amide I:6-II:C; N-terminus assumed) are within 1.5-fold of each other in “MIC P. aeruginosa PAO1” value: 7 µg/mL (≈ 3.35 µM) for the first, 5 µg/mL (≈ 2.64 µM) for the second.

First: CC(C)C[C@H](NC(=O)[C@H](CCCCNC(=O)[C@H](CCCCN)NC(=O)[C@H](CCCCNC(=O)[C@@H](N)CC(C)C)NC(=O)[C@@H](N)CC(C)C)NC(=O)[C@H](CCCCN)NC(=O)[C@H](CCCCNC(=O)[C@@H](N)CC(C)C)NC(=O)[C@@H](N)CC(C)C)C(=O)NCCCC[C@H](NC(=O)[C@H](CC(C)C)NC(=O)[C@H](CCCCNC(=O)[C@H](CCCCN)NC(=O)[C@H](CCCCNC(=O)[C@@H](N)CC(C)C)NC(=O)[C@@H](N)CC(C)C)NC(=O)[C@H](CCCCN)NC(=O)[C@H](CCCCNC(=O)[C@@H](N)CC(C)C)NC(=O)[C@@H](N)CC(C)C)C(=O)N[C@@H](CCCCN)C(N)=O [MSt-147, (L)8(KK)4(KL)2(KK)] (I: H-LK(Leu)KK([Lys-LeuLys(Leu)])LKK-NH2 / II: H-LK(Leu)KK([Lys-LeuLys(Leu)])L; amide I:6-II:C)
Second: CC(C)C[C@H](NC(=O)[C@H](CC(C)C)NC(=O)[C@H](CCCCN)NC(=O)[C@H](CCCCNC(=O)[C@H](CC(C)C)NC(=O)[C@H](CCCCN)NC(=O)[C@H](CC(C)C)NC(=O)[C@H](CCCCNC(=O)[C@H](CC(C)C)NC(=O)[C@H](CCCCN)NC(=O)[C@H](CCCCNC(=O)[C@H](CC(C)C)NC(=O)[C@@H](N)CCCCN)NC(=O)[C@H](CC(C)C)NC(=O)[C@@H](N)CCCCN)NC(=O)[C@H](CC(C)C)NC(=O)[C@H](CCCCN)NC(=O)[C@H](CCCCNC(=O)[C@H](CC(C)C)NC(=O)[C@@H](N)CCCCN)NC(=O)[C@H](CC(C)C)NC(=O)[C@@H](N)CCCCN)NC(=O)[C@H](CC(C)C)NC(=O)[C@H](CCCCN)NC(=O)[C@H](CC(C)C)NC(=O)[C@H](CCCCNC(=O)[C@H](CC(C)C)NC(=O)[C@H](CCCCN)NC(=O)[C@H](CCCCNC(=O)[C@H](CC(C)C)NC(=O)[C@@H](N)CCCCN)NC(=O)[C@H](CC(C)C)NC(=O)[C@@H](N)CCCCN)NC(=O)[C@H](CC(C)C)NC(=O)[C@H](CCCCN)NC(=O)[C@H](CCCCNC(=O)[C@H](CC(C)C)NC(=O)[C@@H](N)CCCCN)NC(=O)[C@H](CC(C)C)NC(=O)[C@@H](N)CCCCN)C(N)=O [YGO-009, (KL)8(KKL)4(KLKL)2(KKLL)] (I: H-KLK([Leu-Lys])KLKLKLKKLL-NH2 / II: H-KLK([Leu-Lys])KLKLKL / III: H-KLK([Leu-Lys])KL / IV: H-KLK([Leu-Lys])KL; amide I:6-IV:C, I:10-II:C, II:6-III:C)
The “MIC P. aeruginosa PAO1” value of the first is 6-fold higher: 12 µg/mL (≈ 4.47 µM) for the first, 2 µg/mL (≈ 0.41 µM) for the second.

Going from `CC(C)C[C@H](NC(=O)[C@H](CCCCN)NC(=O)[C@H](CCCCN)NC(=O)[C@H](CCCCNC(=O)[C@H](CC(C)C)NC(=O)[C@H](CCCCN)NC(=O)[C@H](CC(C)C)NC(=O)[C@H](CCCCNC(=O)[C@H](CC(C)C)NC(=O)[C@H](CCCCN)NC(=O)[C@H](CCCCNC(=O)[C@H](CC(C)C)NC(=O)[C@@H](N)CCCCN)NC(=O)[C@H](CC(C)C)NC(=O)[C@@H](N)CCCCN)NC(=O)[C@H](CC(C)C)NC(=O)[C@H](CCCCN)NC(=O)[C@H](CCCCNC(=O)[C@H](CC(C)C)NC(=O)[C@@H](N)CCCCN)NC(=O)[C@H](CC(C)C)NC(=O)[C@@H](N)CCCCN)NC(=O)[C@H](CC(C)C)NC(=O)[C@H](CCCCN)NC(=O)[C@H](CC(C)C)NC(=O)[C@H](CCCCNC(=O)[C@H](CC(C)C)NC(=O)[C@H](CCCCN)NC(=O)[C@H](CCCCNC(=O)[C@H](CC(C)C)NC(=O)[C@@H](N)CCCCN)NC(=O)[C@H](CC(C)C)NC(=O)[C@@H](N)CCCCN)NC(=O)[C@H](CC(C)C)NC(=O)[C@H](CCCCN)NC(=O)[C@H](CCCCNC(=O)[C@H](CC(C)C)NC(=O)[C@@H](N)CCCCN)NC(=O)[C@H](CC(C)C)NC(=O)[C@@H](N)CCCCN)C(N)=O` [YGO-008, (KL)8(KKL)4(KLKL)2(KKKL)] (I: H-KLK([Leu-Lys])KLKLKLKKKL-NH2 / II: H-KLK([Leu-Lys])KLKLKL / III: H-KLK([Leu-Lys])KL / IV: H-KLK([Leu-Lys])KL; amide I:6-IV:C, I:10-II:C, II:6-III:C) to `CC(C)C[C@H](NC(=O)[C@H](CCCCN)NC(=O)[C@H](CC(C)C)NC(=O)[C@H](CCCCNC(=O)[C@H](CC(C)C)NC(=O)[C@H](CCCCN)NC(=O)[C@H](CCCCNC(=O)[C@H](CC(C)C)NC(=O)[C@@H](N)CCCCN)NC(=O)[C@H](CC(C)C)NC(=O)[C@@H](N)CCCCN)NC(=O)[C@H](CC(C)C)NC(=O)[C@H](CCCCN)NC(=O)[C@H](CCCCNC(=O)[C@H](CC(C)C)NC(=O)[C@@H](N)CCCCN)NC(=O)[C@H](CC(C)C)NC(=O)[C@@H](N)CCCCN)C(=O)NCCCC[C@H](NC(=O)[C@H](CC(C)C)NC(=O)[C@H](CCCCN)NC(=O)[C@H](CC(C)C)NC(=O)[C@H](CCCCNC(=O)[C@H](CC(C)C)NC(=O)[C@H](CCCCN)NC(=O)[C@H](CCCCNC(=O)[C@H](CC(C)C)NC(=O)[C@@H](N)CCCCN)NC(=O)[C@H](CC(C)C)NC(=O)[C@@H](N)CCCCN)NC(=O)[C@H](CC(C)C)NC(=O)[C@H](CCCCN)NC(=O)[C@H](CCCCNC(=O)[C@H](CC(C)C)NC(=O)[C@@H](N)CCCCN)NC(=O)[C@H](CC(C)C)NC(=O)[C@@H](N)CCCCN)C(=O)N[C@@H](CCCCN)C(=O)N[C@@H](CC(C)C)C(=O)N[C@@H](CCCCN)C(N)=O` [YGO-010, (KL)8(KKL)4(KLKL)2(KKLK)] (I: H-KLK([Leu-Lys])KLKLKLKKLK-NH2 / II: H-KLK([Leu-Lys])KLKLKL / III: H-KLK([Leu-Lys])KL / IV: H-KLK([Leu-Lys])KL; amide I:6-IV:C, I:10-II:C, II:6-III:C), the “MIC P. aeruginosa PAO1” value rises from 2 µg/mL (≈ 0.409 µM) to 3 µg/mL (≈ 0.614 µM) (1.5-fold).

`CC(C)C[C@H](NC(=O)[C@H](CCCCN)NC(=O)[C@H](CC(C)C)NC(=O)[C@H](CCCCNC(=O)[C@H](CC(C)C)NC(=O)[C@H](CCCCN)NC(=O)[C@H](CC(C)C)NC(=O)[C@H](CCCCNC(=O)[C@H](CC(C)C)NC(=O)[C@H](CCCCN)NC(=O)[C@H](CCCCNC(=O)[C@H](CC(C)C)NC(=O)[C@@H](N)CCCCN)NC(=O)[C@H](CC(C)C)NC(=O)[C@@H](N)CCCCN)NC(=O)[C@H](CC(C)C)NC(=O)[C@H](CCCCN)NC(=O)[C@H](CCCCNC(=O)[C@H](CC(C)C)NC(=O)[C@@H](N)CCCCN)NC(=O)[C@H](CC(C)C)NC(=O)[C@@H](N)CCCCN)NC(=O)[C@H](CC(C)C)NC(=O)[C@H](CCCCN)NC(=O)[C@H](CC(C)C)NC(=O)[C@H](CCCCNC(=O)[C@H](CC(C)C)NC(=O)[C@H](CCCCN)NC(=O)[C@H](CCCCNC(=O)[C@H](CC(C)C)NC(=O)[C@@H](N)CCCCN)NC(=O)[C@H](CC(C)C)NC(=O)[C@@H](N)CCCCN)NC(=O)[C@H](CC(C)C)NC(=O)[C@H](CCCCN)NC(=O)[C@H](CCCCNC(=O)[C@H](CC(C)C)NC(=O)[C@@H](N)CCCCN)NC(=O)[C@H](CC(C)C)NC(=O)[C@@H](N)CCCCN)C(N)=O` [YGO-011, (KL)8(KKL)4(KLKL)2(KLKL)] (I: H-KLK([Leu-Lys])KLKLKLKLKL-NH2 / II: H-KLK([Leu-Lys])KLKLKL / III: H-KLK([Leu-Lys])KL / IV: H-KLK([Leu-Lys])KL; amide I:6-IV:C, I:10-II:C, II:6-III:C) was tested, and the “MIC P. aeruginosa PAO1” value was 3 µg/mL (≈ 0.616 µM).
